# From patent US6906198B1, “Antipicornaviral compounds, their preparation and use” (Agouron Pharmaceuticals, Inc., priority 1998, dated 2005)
# Where two headings read alike, the source gives them in different places.
# Experiments:
# [1] = Cytotoxicity in mock-infected H1-HeLa cells (antirhinoviral assay, XTT); format: cell-based; conditions: human, 50% cytotoxic dose
# Protocol: (§1) H1-HeLa cells were infected with HRV-14 at a multiplicity of infection (m.o.i.) of 0.13 (virus particles/cell) or mock-infected with medium only. Infected or mock-infected cells were resuspended at 8×10^5 cells per mL, and incubated with appropriate concentrations of the compounds to be tested. Two days later, XTT/PMS was added to test plates and the amount of formazan produced was quantified spectrophotometrically at 450/650 nm. The EC50 value was calculated as the concentration of compound that increased the percentage of formazan production in compound-treated, virus-infected cells to 50% of that produced by compound-free, mock-infected cells. The 50% cytotoxic dose (CC50) was calculated as the concentration of compound that decreased the percentage of formazan produced in compound-treated, mock-infected cells to 50% of that produced by compound-free, mock-infected cells. The therapeutic index (TI) was calculated by dividing the CC50 value by the EC50 value.
# (§2) All strains of human rhinovirus (HRV) for use in this assay were purchased from American Type Culture Collection (ATCC), except for HRV serotype-14 (produced from the infectious cDNA clone constructed by Dr. Robert Rueckert, Institute for Molecular Virology, University of Wisconsin, Madison, Wis.). HRV stocks were propagated and viral assays were performed in H1-HeLa cells (ATCC). Cells were grown in minimal essential medium with 10% fetal bovine serum, available from Life Technologies (Gaithersburg, Md.).
# HRV-14 = test: Antirhinoviral H1-HeLa cell culture assay (XTT), HRV-14; format: cell-based, human rhinovirus
# Protocol: (§3) Antirhinoviral H1-HeLa Cell Culture Assay
# (§4) In this cell protection assay, the ability of compounds to protect cells against HRV infection was measured by the XTT dye reduction method, which is described in Weislow et al., J. Natl. Cancer Inst. 1989, vol. 81, 577-586.
# as §1, §2
# The compounds were tested against control compounds WIN 51711, WIN 52084, and WIN 54954 (obtained from Sterling-Winthrop Pharmaceuticals), Pirodavir (obtained from Janssen Pharmaceuticals), and Pleconaril (prepared according to the method described in Diana et al., J. Med. Chem 1995, vol. 38, 1355). Antiviral data obtained for the test compounds are shown in Tables 1 and 3, where all data are for HRV serotype-14 unless otherwise noted in parentheses.
# HRV serotype 1A = test: Antirhinoviral H1-HeLa cell culture assay (XTT), HRV-1A; format: cell-based, human rhinovirus; conditions: H1-HeLa cells
# Protocol: as §3, §4, §1, §2
# (§5) The compounds were tested against control compounds WIN 51711, WIN 52084, and WIN 54954 (obtained from Sterling-Winthrop Pharmaceuticals), Pirodavir (obtained from Janssen Pharmaceuticals), and Pleconaril (prepared according to the method described in Diana et al., J. Med. Chem 1995, vol. 38, 1355). […]
# HRV serotype 10 = test: Antirhinoviral H1-HeLa cell culture assay (XTT), HRV-10; format: cell-based, human rhinovirus; conditions: H1-HeLa cells
# Protocol: as §3, §4, §1, §2, §5
# [2] = Cytotoxicity in uninfected H1-HeLa cells (anticoxsackieviral assay, XTT); format: cell-based; conditions: human; 50% cytotoxic dose, uninfected H1-HeLa cells (Table 4)
# Protocol: Coxsackievirus types A-21 (CAV-21) and B3 (CVB-3) were purchased from American Type Culture Collection (ATCC, Rockville, Md.). Virus stocks were propagated and antiviral assays were performed in H1-HeLa cells (ATCC). Cells were grown in minimal essential medium with 10% fetal bovine serum (Life Technologies, Gaithersburg, Md.).
# The ability of compounds to protect cells against either CAV-21 or CVB-3 infection was measured by the XTT dye reduction method. This method is described in Weislow et al., J. Natl. Cancer Inst. 1989, vol. 81, 577-586. H1-HeLa cells were infected with CAV-21 or CVB-3 at a multiplicity of infection (m.o.i.) of 0.025 or 0.075, respectively, or mock-infected with medium only. H1-HeLa cells were plated at 4×10^4 cells per well in a 96-well plate and incubated with appropriate concentrations of the test compound. One day (CVB-3) or two days (CAV-21) later, XTT/PMS was added to test plates and the amount of formazan produced was quantified spectrophotometrically at 450/650 nm. The EC50 was calculated as the concentration of compound that increased the formazan production in compound-treated, virus-infected cells to 50% of that produced by compound-free, uninfected cells. The 50% cytotoxic dose (CC50) was calculated as the concentration of compound that decreased formazan production in compound-treated, uninfected cells to 50% of that produced in compound-free, uninfected cells. The therapeutic index (TI) was calculated by dividing the CC50 by the EC50.
# [3] = Cytotoxicity in uninfected MRC-5 cells (anti-echoviral/-enteroviral assay, XTT); format: cell-based; conditions: human, 50% cytotoxic dose
# Protocol: Echovirus type 11 (EV 11) and enterovirus type 70 (EV 70) were purchased from ATCC (Rockville, Md.). Virus stocks were propagated and antiviral assays were performed in MRC-5 cells (ATCC). Cells were grown in minimal essential medium with 10% fetal bovine serum (Life Technologies, Gaithersburg, Md.).
# The ability of compounds to protect cells against either EV 11 or EV 70 infection was measured by the XTT dye reduction method (Weislow et al., J. Natl. Cancer Inst. 1989, vol. 81, 577-586). MRC-5 cells were infected with EV 11 or EV 70 at an m.o.i. of 0.003 or 0.004, respectively, or mock-infected with medium only. Infected or uninfected cells were added at 1×10^4 cells per well and incubated with appropriate concentrations of compound. Four days later, XTT/PMS was added to test plates, and the amount of formazan produced was quantified spectrophotometrically at 450/650 nm. The EC50 was calculated as the concentration of compound that increased the formazan production in compound-treated, virus-infected cells to 50% of that produced by compound-free, uninfected cells. The 50% cytotoxic dose (CC50) was calculated as the concentration of compound that decreased formazan production in compound-treated, uninfected cells to 50% of that produced in compound-free, uninfected cells. The therapeutic index (TI) was calculated by dividing the CC50 by the EC50.
# H1-HeLa cells = test: Cytotoxicity in mock-infected H1-HeLa cells (antirhinoviral assay, XTT); format: cell-based; conditions: 50% cytotoxic dose
# Protocol: as §1, §2
# [4] = HRV serotype-14, H1-HeLa cells (Table 1), read-out: Cell Protection EC50
# [5] = HRV serotype-14, H1-HeLa cells (Table 3), read-out: EC50
SMILES,CC50 at 2 days [1] [µM],EC50 (HRV-14; [4]) [µM],EC50 (HRV-14; [5]) [µM],further results
CCOC(=O)/C=C/[C@H](CN1CCNC1=O)NC(=O)[C@H](Cc1ccccc1)NC(=O)[C@H](CC(C)C)NC(=O)OCc1ccccc1,,,,melting point: 161 to 164 °C
"CCOC(=O)/C=C/[C@H](CCC(N)=O)NC(=O)[C@H](Cc1ccccc1)NC(=O)[C@H](CC(C)C)NC(=O)c1cc(C)on1 [(A-1), Ethyl-3-((5′-Methylisoxazole-3′-carbonyl)-L-Leu-L-Phe-L-Gln)-E-Propenoate]",> 100,,,melting point: 223 to 225 °C
"CCOC(=O)/C=C/[C@H](CCC(N)=O)NC(=O)[C@H](Cc1ccccc1)N(C)C(=O)[C@H](CC(C)C)NC(=O)c1cc(C)on1 [(A-10), Ethyl-3-((5′-Methylisoxazole-3′-carbonyl)-L-Leu-NCH3-L-Phe-L-Gln}-E-Propenoate]",> 100,,,"EC50 (HRV-14; Rhinovirus B, HRV14, HRV serotype-14, H1-HeLa cells (Table 1), read-out: Cell Protection EC50): 0.14 µM; EC50 (HRV-14; Rhinovirus B, HRV14, HRV serotype-14, H1-HeLa cells (Table 3), read-out: EC50): 0.14 µM"
CCOC(=O)/C=C/[C@H](CCC(N)=O)NC(=O)[C@H](Cc1ccccc1)NC(=O)[C@@H](NC(=O)c1cccs1)C(C)(C)C [(A-14)],,0.48,0.48,
CCOC(=O)/C=C/[C@H](CCC(N)=O)NC(=O)[C@H](Cc1ccc(C)cc1)NC(=O)[C@@H](NC(=O)C1SCCS1)C(C)(C)C [(A-15)],,0.22,0.22,EC50 (HRV serotype 1A): 7.1 µM; EC50 (HRV serotype 10): 2.7 µM
CCOC(=O)/C=C/[C@H](CCC(N)=O)NC(=O)[C@H](Cc1ccc(C)cc1)NC(=O)[C@@H](NC(=O)c1ccc[nH]1)C(C)(C)C [(A-16)],,0.45,0.45,EC50 (HRV serotype 1A): 4.8 µM; EC50 (HRV serotype 10): 4.5 µM
CC(C)[C@H](NC(=O)C1SCCS1)C(=O)N[C@@H](Cc1ccc(F)cc1)C(=O)N[C@H](/C=C/C(=O)OCc1cccnc1)CCC(N)=O [(A-18)],,1.5,1.5,
CCOC(=O)/C=C/[C@H](CCC(N)=O)NC(=O)[C@H](Cc1ccccc1)NC(=O)[C@H](CC(C)C)NC(=O)[C@@H]1C=CCN1 [(A-19)],,25.1,25.1,
CCOC(=O)/C=C/[C@H](CCC(N)=O)NC(=O)[C@H](Cc1ccccc1)NC(=O)[C@H](CC(C)C)NC(=O)c1cc(C)oc1C [(A-20)],,12.6,12.6,
CCOC(=O)/C=C/[C@H](CCC(N)=O)NC(=O)[C@H](Cc1ccccc1)NC(=O)[C@H](CC(C)C)NC(=O)c1nc(C)c[nH]1 [(A-21)],,2.5,2.5,
"CCOC(=O)/C=C/[C@H](CCC(N)=O)NC(=O)[C@@H](CC(=O)[C@@H](NC(=O)c1cc(C)on1)C(C)C)Cc1ccc(F)cc1 [(B-1), Ethyl-3-{(5′-Methylisoxazole-3′-carbonyl)-L-ValΨ(COCH2)-L-(4-F-Phe)-L-Gln}-E-Propenoate]",> 100,,,melting point: 220 °C (dec.)
"CCOC(=O)/C=C/[C@H](C[C@@H]1CCNC1=O)NC(=O)[C@@H](CC(=O)[C@@H](NC(=O)c1cc(C)on1)C(C)C)Cc1ccc(F)cc1 [(B-2), Ethyl-3-{(5′-Methylisoxazole-3′-carbonyl)-L-ValΨ(COCH2)-L-(4-F-Phe)-L-((S)-Pyrrol-Ala)}-E-Propenoate]",> 100,,,CC50 [2]: > 100 µM; CC50 at 4 days [3]: > 100 µM
"CCOC(=O)/C=C/[C@H](C[C@@H]1CCCNC1=O)NC(=O)[C@@H](CC(=O)[C@@H](NC(=O)c1cc(C)on1)C(C)C)Cc1ccc(F)cc1 [(B-4), Ethyl-3-{(5′-Methylisoxazole-3′-carbonyl)-L-ValΨ(COCH2)-L-(4-F-Phe)-L-((S)-Piper-Ala)}-E-Propenoate]",> 100,,,
"CCOC(=O)/C=C/[C@H](CCC(N)=O)NC(=O)[C@H](Cc1ccc(F)cc1)OC(=O)[C@@H](NC(=O)c1cc(C)on1)C(C)C [(C-1), Ethyl-3-{(5′-Methylisoxazole-3′-carbonyl)-L-Val-O-L-(4-F-Phe)-L-Gln}-E-Propenoate]",> 10,,,
"CCOC(=O)/C=C/[C@H](C[C@@H]1CCNC1=O)NC(=O)[C@H](Cc1ccc(F)cc1)OC(=O)[C@@H](NC(=O)c1cc(C)on1)C(C)C [(C-2), Ethyl-3-{(5′-Methylisoxazole-3′-carbonyl)-L-Val-O-L-(4-F-Phe)-L-((S)-Pyrrol-Ala)}-E-Propenoate]",> 10,,,
"CC(C)C[C@H](NC(=O)OCc1ccccc1)C(=O)N[C@@H](Cc1ccccc1)C(=O)N[C@H](/C=C/c1ccno1)CCC(N)=O [Comparison Compound #1, 5-(3′-(Cbz-L-Leu-L-Phe-L-Gln)-E-Propene)-Isoxazole, reference compound]",> 320,,,
"CCOC(=O)/C=C/[C@H](CCC(N)=O)NC(=O)[C@H](Cc1ccccc1)NC(=O)[C@H](CC(C)C)NC(=O)OCc1ccccc1 [Comparison Compound #2, Ethyl-3-(Cbz-L-Leu-L-Phe-L-Gln)-E-Propenoate]",> 320,,,melting point: 219 to 221 °C
"CCOC(=O)c1ccc(OCCC2CCN(c3ccc(C)nn3)CC2)cc1 [Pirodavir, reference compound]",> 10,,,CC50 [2]: > 100 µM; CC50 at 4 days [3]: > 10 µM
"Cc1cc(CCCOc2c(C)cc(-c3noc(C(F)(F)F)n3)cc2C)on1 [Pleconaril, reference compound]",> 10,,,CC50 [2]: > 10 µM; CC50 at 4 days [3]: > 10 µM
"Cc1cc(CCCCCCCOc2ccc(C3=NCCO3)cc2)on1 [WIN 51711, reference compound]",,,0.78,CC50 (H1-HeLa cells): > 60 µM
"Cc1cc(CCCCCCCOc2ccc(C3=N[C@@H](C)CO3)cc2)on1 [WIN 52084, reference compound]",,,0.07,CC50 (H1-HeLa cells): > 10 µM
